From article PMC11189555, “Aryl amino acetamides prevent Plasmodium falciparum ring development via targeting the lipid-transfer protein PfSTART1” (Nature Communications, 2024)

System: SLI-N330K parasites
Experiment: Growth inhibition assay (72 h, LDH activity)
Type: cell-based, Plasmodium falciparum
Method: Parasite growth assays with inhibitory compounds were performed as per[11] and are fully described in the Supplementary Information.
Molecular biology and transfection of P. falciparum: Selection Linked Integration […]
To introduce the PfSTART1 mutations, the second half of the coding sequence of pfstart1 (PF3D7_0104200), was recodonised without introns to the bias of Saccharomyces cerevisiae containing either WT, N309K or N330K mutations, and synthesised as gBlock fragments (Integrated DNA Technologies). The first 819 bp of the 5′ native sequence of pfstart1 was amplified from gDNA, to form the 5’ homology block (5’ HB). The 3′ recodonised gBlock fragment comprising of the last 552 bp of either the WT, N309K or N330K pfstart1 to form the ‘recodon’ block (primers listed in Table S2). The 5’ HB and recodon products were sewn together by overlapping PCR to reconstitute the full coding sequence of pfstart1. These blocks (WT/N309K/N330K) were digested with BglII/PstI, and inserted into the parasite vector p-HA-2A-Neo-glmS
1. This plasmid contains an in -frame haemagglutinin (HA) epitope for protein identification and a P2A peptide (2A) to skip continuous peptide bond synthesis of a downstream neomycin resistance gene ( NeoR).
Parasites containing the transfected DNA were selected using 2.5 nM WR99210 (Jacobus). To select for parasites in which single crossover integration had occurred into the pfstart1 locus, parasites were treated with 400 μg/mL G418 (geniticin, Sigma Aldrich) for 14 days: only parasites that have integrated the construct into their genome expressed the neomycin resistance gene together with the PfSTART1 protein.
Parasite lines were cloned using limiting dilution. These clones were then tested on Western Blot (for correct HA-tagging and protein size), and correct integration and sequence were tested by PCR analysis: PCR on the gDNA was conducted using the primers START_5’UTR.F and START_Seq.R (Table S2). […]
Growth inhibition assays. Synchronised ring-stage parasites (0.3-0.6% parasitemia, 2% haematocrit) were grown for 72 h in a serial-dilution of the compound under […]
and compound 4. Note that M-833 was first purchased from MolPort (MolPort -002-267-916) then made in-house at WEHI: the differences observed in EC50s across experiments are attributed to the different batches of M -833. For some experiments, 0, 0.25 or 2.5 mM of glucosamine (GlcN) was also added. Experiments were set up in technical duplicates or triplicates. Following a freeze -thaw cycle, lactate dehydrogenase (LDH) activity was assessed as an indicator of parasite growt h 5. 30 μL of parasite culture was incubated for 30 min in the dark with 75 μL Malstat mixture (0.1 M Tris pH 9.0, 20 g/L lactic acid, pH 7.5, 0.2% Triton-X100, 0.5 g/L acetylpyridine adenine dinucleotide (APAD, Sigma), 200 μg/mL nitroblue tetrazolium (NBT; Sigma), 1 μg/mL phenozine ethosulfate (PES; Sigma)). Absorbance was then measured at 650 nm, transformed using the formula below, plotted against the logarithm of the concentrations, and a non-linear regression (log(inhibitor) vs. response, variable slope) was calculated using GraphPad Prism to assess the half-inhibitory […]
Growth inhibition % = (1 − average(sample)− average(uRBC)) ∗ 100 […]
The DMSO samples were also used to assess growth of parasite in the presence of 0.25 and 2.5 mM GlcN (normalised by DMSO in 0 mM GlcN).
Egress, invasion & recovery assay. To measure egress, invasion and follow up recovery in the presence of different compounds, we adapted the method developed in6, using Hyp1-Nluc parasites7. These parasites episomally express the exported PEXEL protein Hyp1 (PF3D7_0113300) tagged with a NanoLuc luciferase (NLuc) and were selected with 2.5 nM WR99210 (Jacobus). Highly synchronised schizonts were obtained using ML10 (LifeArc) and sorbitol synchronisation, and Percoll-purified (the culture was gently layered over 67% Percoll (Cytiva) in RPMI, and centrifuged for 15 min at 1500 g and the schizont layer was collected and washed). […]

**Q.** For `Cc1cc(Cl)c(S(=O)(=O)N2CCCC2)cc1OCC(=O)NC1CCCCC1` [M-833], which sample/DMSO (0.00152416 uM M-833, START(N330K), 0 mM GlcN, biological replicate 2) is on record?
**A.** 1.655

**Q.** What about the sample/DMSO (0.00152416 uM M-833, START(N330K), 0.25 mM GlcN, biological replicate 1) of the same compound?
**A.** -2.909

**Q.** And the sample/DMSO (0.00152416 uM M-833, START(N330K), 0.25 mM GlcN, biological replicate 2)?
**A.** 8.825

**Q.** And the sample/DMSO (0.00152416 uM M-833, START(N330K), 2.5 mM GlcN, biological replicate 1)?
**A.** 11.1758

**Q.** What about the sample/DMSO (0.00457247 uM M-833, START(N330K), 0 mM GlcN, biological replicate 1) of the same compound?
**A.** 3.2212

**Q.** What about the sample/DMSO (0.00457247 uM M-833, START(N330K), 0 mM GlcN, biological replicate 2) of the same compound?
**A.** 9.585

**Q.** What about the sample/DMSO (0.00457247 uM M-833, START(N330K), 0 mM GlcN, biological replicate 3) of the same compound?
**A.** 4.929

**Q.** What about the sample/DMSO (0.00457247 uM M-833, START(N330K), 0 mM GlcN, biological replicate 4) of the same compound?
**A.** -5.471

**Q.** And the sample/DMSO (0.00457247 uM M-833, START(N330K), 0.25 mM GlcN, biological replicate 1)?
**A.** 0.8993

**Q.** And the sample/DMSO (0.00457247 uM M-833, START(N330K), 0.25 mM GlcN, biological replicate 2)?
**A.** 9.092

**Q.** And the sample/DMSO (0.00457247 uM M-833, START(N330K), 0.25 mM GlcN, biological replicate 3)?
**A.** -0.2009

**Q.** What about the sample/DMSO (0.00457247 uM M-833, START(N330K), 0.25 mM GlcN, biological replicate 4) of the same compound?
**A.** -11.7886

**Q.** And the sample/DMSO (0.00457247 uM M-833, START(N330K), 2.5 mM GlcN, biological replicate 1)?
**A.** 14.0279

**Q.** What about the sample/DMSO (0.00457247 uM M-833, START(N330K), 2.5 mM GlcN, biological replicate 2) of the same compound?
**A.** 17.9639

**Q.** What about the sample/DMSO (0.00457247 uM M-833, START(N330K), 2.5 mM GlcN, biological replicate 3) of the same compound?
**A.** -5.165

**Q.** And the sample/DMSO (0.00457247 uM M-833, START(N330K), 2.5 mM GlcN, biological replicate 4)?
**A.** -8.571

**Q.** And the sample/DMSO (0.0137174 uM M-833, START(N330K), 0 mM GlcN, biological replicate 1)?
**A.** 7.141

**Q.** What about the sample/DMSO (0.0137174 uM M-833, START(N330K), 0 mM GlcN, biological replicate 2) of the same compound?
**A.** 7.124

**Q.** And the sample/DMSO (0.0137174 uM M-833, START(N330K), 0 mM GlcN, biological replicate 3)?
**A.** -3.262

**Q.** And the sample/DMSO (0.0137174 uM M-833, START(N330K), 0 mM GlcN, biological replicate 4)?
**A.** 6.3139

**Q.** What about the sample/DMSO (0.0137174 uM M-833, START(N330K), 0.25 mM GlcN, biological replicate 1) of the same compound?
**A.** 1.512

**Q.** What about the sample/DMSO (0.0137174 uM M-833, START(N330K), 0.25 mM GlcN, biological replicate 2) of the same compound?
**A.** 8.325

**Q.** What about the sample/DMSO (0.0137174 uM M-833, START(N330K), 0.25 mM GlcN, biological replicate 3) of the same compound?
**A.** 2.478

**Q.** And the sample/DMSO (0.0137174 uM M-833, START(N330K), 0.25 mM GlcN, biological replicate 4)?
**A.** 0

**Q.** And the sample/DMSO (0.0137174 uM M-833, START(N330K), 2.5 mM GlcN, biological replicate 1)?
**A.** 15.7451

**Q.** And the sample/DMSO (0.0137174 uM M-833, START(N330K), 2.5 mM GlcN, biological replicate 2)?
**A.** 11.3968

**Q.** What about the sample/DMSO (0.0137174 uM M-833, START(N330K), 2.5 mM GlcN, biological replicate 3) of the same compound?
**A.** -4.719

**Q.** And the sample/DMSO (0.0137174 uM M-833, START(N330K), 2.5 mM GlcN, biological replicate 4)?
**A.** -3.372

**Q.** What about the sample/DMSO (0.0411523 uM M-833, START(N330K), 0 mM GlcN, biological replicate 1) of the same compound?
**A.** 8.934

**Q.** What about the sample/DMSO (0.0411523 uM M-833, START(N330K), 0 mM GlcN, biological replicate 2) of the same compound?
**A.** 2.634

**Q.** What about the sample/DMSO (0.0411523 uM M-833, START(N330K), 0 mM GlcN, biological replicate 3) of the same compound?
**A.** 5.053

**Q.** And the sample/DMSO (0.0411523 uM M-833, START(N330K), 0 mM GlcN, biological replicate 4)?
**A.** -9.704

**Q.** And the sample/DMSO (0.0411523 uM M-833, START(N330K), 0.25 mM GlcN, biological replicate 1)?
**A.** 4.325

**Q.** And the sample/DMSO (0.0411523 uM M-833, START(N330K), 0.25 mM GlcN, biological replicate 2)?
**A.** -8.575

**Q.** And the sample/DMSO (0.0411523 uM M-833, START(N330K), 0.25 mM GlcN, biological replicate 3)?
**A.** -3.728

**Q.** What about the sample/DMSO (0.0411523 uM M-833, START(N330K), 0.25 mM GlcN, biological replicate 4) of the same compound?
**A.** -6.829

**Q.** And the sample/DMSO (0.0411523 uM M-833, START(N330K), 2.5 mM GlcN, biological replicate 1)?
**A.** 19.2666

**Q.** What about the sample/DMSO (0.0411523 uM M-833, START(N330K), 2.5 mM GlcN, biological replicate 2) of the same compound?
**A.** 13.1689

**Q.** And the sample/DMSO (0.0411523 uM M-833, START(N330K), 2.5 mM GlcN, biological replicate 3)?
**A.** 1.449

**Q.** What about the sample/DMSO (0.0411523 uM M-833, START(N330K), 2.5 mM GlcN, biological replicate 4) of the same compound?
**A.** -4.731

**Q.** And the sample/DMSO (0.123457 uM M-833, START(N330K), 0 mM GlcN, biological replicate 1)?
**A.** 11.901

**Q.** What about the sample/DMSO (0.123457 uM M-833, START(N330K), 0 mM GlcN, biological replicate 2) of the same compound?
**A.** 1.439

**Q.** And the sample/DMSO (0.123457 uM M-833, START(N330K), 0 mM GlcN, biological replicate 3)?
**A.** 5.443

**Q.** What about the sample/DMSO (0.123457 uM M-833, START(N330K), 0 mM GlcN, biological replicate 4) of the same compound?
**A.** 0.2691

**Q.** And the sample/DMSO (0.123457 uM M-833, START(N330K), 0.25 mM GlcN, biological replicate 1)?
**A.** 10.3138

**Q.** And the sample/DMSO (0.123457 uM M-833, START(N330K), 0.25 mM GlcN, biological replicate 2)?
**A.** 8.225

**Q.** What about the sample/DMSO (0.123457 uM M-833, START(N330K), 0.25 mM GlcN, biological replicate 3) of the same compound?
**A.** 5.9375
